Blank lines part the entries; values can stand above or below the compound they belong to.
Experiments:
[1] = target: Dual specificity mitogen-activated protein kinase kinase 1 (Homo sapiens) (UniProt Q02750); experiment: Inhibition of human recombinant MAP2K1 at 500 nM related to control ULK1
[2] = target: Serine/threonine-protein kinase SIK2 (Homo sapiens) (UniProt Q9H0K1); experiment: Inhibition of human recombinant QIK at 500 nM in presence of ATP by radiometric assay relative to control
[3] = target: Insulin receptor (Homo sapiens) (UniProt P06213); experiment: Inhibition of human recombinant INSR at 500 nM in presence of ATP by radiometric assay relative to control
[4] = target: T1, Serine/threonine-protein kinase PLK4 (Homo sapiens) (UniProt O00444); experiment: Inhibition of human recombinant PLK4 at 15 nM related to control ULK1
T1 sequence (whole entry): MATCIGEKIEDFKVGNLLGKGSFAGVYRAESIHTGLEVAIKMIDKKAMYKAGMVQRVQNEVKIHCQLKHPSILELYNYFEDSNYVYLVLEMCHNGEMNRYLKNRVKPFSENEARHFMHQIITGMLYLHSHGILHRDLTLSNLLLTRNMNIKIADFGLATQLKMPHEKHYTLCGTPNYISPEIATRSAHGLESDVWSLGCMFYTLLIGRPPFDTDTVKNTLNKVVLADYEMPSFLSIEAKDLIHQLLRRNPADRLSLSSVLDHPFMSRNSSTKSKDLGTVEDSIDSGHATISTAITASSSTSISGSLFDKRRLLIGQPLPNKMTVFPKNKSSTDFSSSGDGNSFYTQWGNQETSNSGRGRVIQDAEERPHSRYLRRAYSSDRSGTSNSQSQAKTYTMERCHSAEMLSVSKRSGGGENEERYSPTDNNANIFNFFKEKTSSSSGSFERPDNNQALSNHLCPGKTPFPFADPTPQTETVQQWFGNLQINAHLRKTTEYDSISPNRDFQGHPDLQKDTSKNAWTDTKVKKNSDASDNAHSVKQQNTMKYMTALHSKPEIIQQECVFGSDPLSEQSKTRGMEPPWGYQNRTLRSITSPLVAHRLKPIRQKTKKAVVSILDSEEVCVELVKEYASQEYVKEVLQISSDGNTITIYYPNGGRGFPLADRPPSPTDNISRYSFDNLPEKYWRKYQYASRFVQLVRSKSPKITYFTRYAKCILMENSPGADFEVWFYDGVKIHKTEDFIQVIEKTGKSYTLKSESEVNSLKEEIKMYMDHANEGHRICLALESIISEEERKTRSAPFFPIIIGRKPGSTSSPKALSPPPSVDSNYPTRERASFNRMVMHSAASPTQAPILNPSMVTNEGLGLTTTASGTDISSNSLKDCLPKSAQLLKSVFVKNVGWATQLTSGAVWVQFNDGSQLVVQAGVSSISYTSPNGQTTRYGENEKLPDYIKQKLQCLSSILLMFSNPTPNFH

[5] = target: Casein kinase II subunit alpha (Homo sapiens) (UniProt P68400); experiment: Inhibition of human recombinant CK2a1 at 15 nM related to control ULK1
[6] = target: T2, Eukaryotic elongation factor 2 kinase (Homo sapiens) (UniProt O00418); experiment: Inhibition of human recombinant eEF2K at 15 nM related to control ULK1
T2 sequence (whole entry): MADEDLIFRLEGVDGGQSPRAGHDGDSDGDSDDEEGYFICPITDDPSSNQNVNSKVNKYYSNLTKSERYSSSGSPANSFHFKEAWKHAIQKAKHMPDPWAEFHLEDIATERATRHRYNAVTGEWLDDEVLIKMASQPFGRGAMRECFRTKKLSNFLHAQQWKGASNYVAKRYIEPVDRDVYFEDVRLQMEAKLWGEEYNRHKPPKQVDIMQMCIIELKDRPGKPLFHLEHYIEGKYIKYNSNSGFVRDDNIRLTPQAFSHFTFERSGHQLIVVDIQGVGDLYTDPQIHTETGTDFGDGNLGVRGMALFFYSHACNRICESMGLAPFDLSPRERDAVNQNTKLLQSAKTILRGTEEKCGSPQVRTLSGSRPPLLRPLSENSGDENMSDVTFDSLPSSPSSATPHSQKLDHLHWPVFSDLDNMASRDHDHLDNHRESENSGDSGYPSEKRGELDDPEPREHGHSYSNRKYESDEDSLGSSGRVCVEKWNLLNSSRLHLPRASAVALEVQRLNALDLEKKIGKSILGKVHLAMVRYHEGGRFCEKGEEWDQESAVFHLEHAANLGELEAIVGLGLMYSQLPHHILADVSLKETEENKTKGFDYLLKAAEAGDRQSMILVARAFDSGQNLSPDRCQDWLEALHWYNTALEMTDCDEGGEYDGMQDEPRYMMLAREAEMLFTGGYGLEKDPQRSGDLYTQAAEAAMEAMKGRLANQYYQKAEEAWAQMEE

[7] = target: T3, Testis-specific serine/threonine-protein kinase 2 (Homo sapiens) (UniProt Q96PF2); experiment: Inhibition of human recombinant TSSK2 at 40 nM related to control ULK1
T3 sequence (whole entry): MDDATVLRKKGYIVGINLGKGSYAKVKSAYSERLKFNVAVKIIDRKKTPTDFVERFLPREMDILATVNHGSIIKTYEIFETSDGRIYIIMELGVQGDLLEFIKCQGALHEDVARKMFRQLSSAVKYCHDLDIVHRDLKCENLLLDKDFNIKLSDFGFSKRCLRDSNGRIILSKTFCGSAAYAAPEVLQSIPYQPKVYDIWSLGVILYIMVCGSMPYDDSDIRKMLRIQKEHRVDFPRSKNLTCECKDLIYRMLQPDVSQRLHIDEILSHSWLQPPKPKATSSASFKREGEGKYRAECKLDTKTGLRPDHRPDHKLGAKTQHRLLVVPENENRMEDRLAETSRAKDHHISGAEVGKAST

[8] = target: Ribosomal protein S6 kinase alpha-1 (Homo sapiens) (UniProt Q15418); experiment: Inhibition of human recombinant RSK1 at 40 nM in presence of ATP by radiometric assay relative to control
[9] = target: Serine/threonine-protein kinase 10 (Homo sapiens) (UniProt O94804); experiment: Inhibition of human recombinant LOK at 40 nM in presence of ATP by radiometric assay relative to control
[10] = target: Cyclin-dependent kinase 7 (Homo sapiens) (UniProt P50613); experiment: Inhibition of human recombinant CDK7 at 40 nM in presence of ATP by radiometric assay relative to control
Chain of Cyclin-dependent kinase 7 (Homo sapiens) (P50613 whole entry): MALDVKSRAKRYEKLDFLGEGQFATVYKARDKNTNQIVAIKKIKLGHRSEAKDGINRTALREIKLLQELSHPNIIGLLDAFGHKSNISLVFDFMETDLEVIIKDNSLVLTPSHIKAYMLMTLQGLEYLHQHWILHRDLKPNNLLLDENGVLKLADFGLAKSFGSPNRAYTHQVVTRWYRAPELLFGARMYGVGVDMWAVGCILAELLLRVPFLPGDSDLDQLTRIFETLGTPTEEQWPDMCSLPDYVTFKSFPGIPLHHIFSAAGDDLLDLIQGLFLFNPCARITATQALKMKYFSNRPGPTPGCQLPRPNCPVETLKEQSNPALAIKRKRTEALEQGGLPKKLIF

Chain of Dual specificity mitogen-activated protein kinase kinase 1 (Homo sapiens) (Q02750 whole entry): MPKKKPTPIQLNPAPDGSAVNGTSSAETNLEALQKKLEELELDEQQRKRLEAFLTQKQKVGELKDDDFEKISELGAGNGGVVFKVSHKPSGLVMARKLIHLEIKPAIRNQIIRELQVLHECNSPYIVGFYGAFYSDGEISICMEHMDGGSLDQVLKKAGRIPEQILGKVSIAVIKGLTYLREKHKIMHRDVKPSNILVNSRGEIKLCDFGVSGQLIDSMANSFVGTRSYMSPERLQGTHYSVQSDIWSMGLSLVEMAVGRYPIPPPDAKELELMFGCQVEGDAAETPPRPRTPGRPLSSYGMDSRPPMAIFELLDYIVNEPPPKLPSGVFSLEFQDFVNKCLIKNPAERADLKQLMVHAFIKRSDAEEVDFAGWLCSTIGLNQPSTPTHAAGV
Chain of Ribosomal protein S6 kinase alpha-1 (Homo sapiens) (Q15418 whole entry): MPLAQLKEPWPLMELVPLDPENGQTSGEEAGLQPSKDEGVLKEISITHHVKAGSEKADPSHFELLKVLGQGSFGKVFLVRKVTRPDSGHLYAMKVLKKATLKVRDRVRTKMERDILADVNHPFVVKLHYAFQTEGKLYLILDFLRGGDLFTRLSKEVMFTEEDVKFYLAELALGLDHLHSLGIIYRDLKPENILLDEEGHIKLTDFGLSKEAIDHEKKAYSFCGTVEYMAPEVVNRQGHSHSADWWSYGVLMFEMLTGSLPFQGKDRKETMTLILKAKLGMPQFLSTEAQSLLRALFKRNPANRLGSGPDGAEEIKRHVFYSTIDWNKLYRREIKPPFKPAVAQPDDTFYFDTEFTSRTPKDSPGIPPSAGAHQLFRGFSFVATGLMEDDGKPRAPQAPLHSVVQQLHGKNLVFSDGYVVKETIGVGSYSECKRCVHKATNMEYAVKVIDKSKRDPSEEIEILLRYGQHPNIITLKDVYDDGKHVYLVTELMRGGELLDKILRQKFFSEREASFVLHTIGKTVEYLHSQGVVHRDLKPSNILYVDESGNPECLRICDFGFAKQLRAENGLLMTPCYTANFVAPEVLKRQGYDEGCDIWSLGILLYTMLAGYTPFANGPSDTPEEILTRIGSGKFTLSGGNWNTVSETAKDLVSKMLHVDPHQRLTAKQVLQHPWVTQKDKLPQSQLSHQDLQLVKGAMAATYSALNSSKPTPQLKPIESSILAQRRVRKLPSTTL
Chain of Serine/threonine-protein kinase 10 (Homo sapiens) (O94804 whole entry, looked up): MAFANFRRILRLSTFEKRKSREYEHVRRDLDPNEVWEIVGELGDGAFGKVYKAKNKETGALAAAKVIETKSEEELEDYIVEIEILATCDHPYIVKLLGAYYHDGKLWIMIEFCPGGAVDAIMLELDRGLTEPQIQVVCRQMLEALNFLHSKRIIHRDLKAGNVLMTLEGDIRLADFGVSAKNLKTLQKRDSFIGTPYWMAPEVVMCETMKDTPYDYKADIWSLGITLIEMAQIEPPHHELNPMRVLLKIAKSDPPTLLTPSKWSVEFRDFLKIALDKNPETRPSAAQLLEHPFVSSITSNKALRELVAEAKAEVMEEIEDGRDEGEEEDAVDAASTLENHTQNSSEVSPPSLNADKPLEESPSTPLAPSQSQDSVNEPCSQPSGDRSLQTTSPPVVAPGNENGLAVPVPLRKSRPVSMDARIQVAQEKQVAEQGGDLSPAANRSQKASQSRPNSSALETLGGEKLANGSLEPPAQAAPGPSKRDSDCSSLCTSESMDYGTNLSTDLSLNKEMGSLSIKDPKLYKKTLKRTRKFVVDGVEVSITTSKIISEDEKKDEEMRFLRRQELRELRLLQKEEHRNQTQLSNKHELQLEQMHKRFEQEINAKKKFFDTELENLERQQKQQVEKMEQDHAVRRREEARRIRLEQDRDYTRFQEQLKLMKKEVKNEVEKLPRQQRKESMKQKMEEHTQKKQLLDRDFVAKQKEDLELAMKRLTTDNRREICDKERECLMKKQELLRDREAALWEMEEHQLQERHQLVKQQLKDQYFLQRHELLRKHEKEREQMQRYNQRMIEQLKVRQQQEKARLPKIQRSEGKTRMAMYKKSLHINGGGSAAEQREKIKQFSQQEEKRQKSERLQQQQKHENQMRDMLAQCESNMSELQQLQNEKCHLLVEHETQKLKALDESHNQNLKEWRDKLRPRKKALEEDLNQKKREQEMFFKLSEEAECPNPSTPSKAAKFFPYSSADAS
Chain of Casein kinase II subunit alpha (Homo sapiens) (P68400 whole entry, looked up): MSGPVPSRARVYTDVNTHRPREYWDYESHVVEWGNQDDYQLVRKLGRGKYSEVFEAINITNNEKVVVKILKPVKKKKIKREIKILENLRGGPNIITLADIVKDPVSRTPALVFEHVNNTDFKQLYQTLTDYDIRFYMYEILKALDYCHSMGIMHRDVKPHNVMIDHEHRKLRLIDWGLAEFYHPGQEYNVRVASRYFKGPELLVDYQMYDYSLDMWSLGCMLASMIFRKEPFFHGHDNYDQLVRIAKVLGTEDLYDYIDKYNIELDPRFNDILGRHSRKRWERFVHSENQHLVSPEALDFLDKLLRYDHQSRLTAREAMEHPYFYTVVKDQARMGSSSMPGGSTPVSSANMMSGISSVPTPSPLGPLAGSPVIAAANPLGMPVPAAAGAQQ
Chain of Insulin receptor (Homo sapiens) (P06213 28-758 limits assumed): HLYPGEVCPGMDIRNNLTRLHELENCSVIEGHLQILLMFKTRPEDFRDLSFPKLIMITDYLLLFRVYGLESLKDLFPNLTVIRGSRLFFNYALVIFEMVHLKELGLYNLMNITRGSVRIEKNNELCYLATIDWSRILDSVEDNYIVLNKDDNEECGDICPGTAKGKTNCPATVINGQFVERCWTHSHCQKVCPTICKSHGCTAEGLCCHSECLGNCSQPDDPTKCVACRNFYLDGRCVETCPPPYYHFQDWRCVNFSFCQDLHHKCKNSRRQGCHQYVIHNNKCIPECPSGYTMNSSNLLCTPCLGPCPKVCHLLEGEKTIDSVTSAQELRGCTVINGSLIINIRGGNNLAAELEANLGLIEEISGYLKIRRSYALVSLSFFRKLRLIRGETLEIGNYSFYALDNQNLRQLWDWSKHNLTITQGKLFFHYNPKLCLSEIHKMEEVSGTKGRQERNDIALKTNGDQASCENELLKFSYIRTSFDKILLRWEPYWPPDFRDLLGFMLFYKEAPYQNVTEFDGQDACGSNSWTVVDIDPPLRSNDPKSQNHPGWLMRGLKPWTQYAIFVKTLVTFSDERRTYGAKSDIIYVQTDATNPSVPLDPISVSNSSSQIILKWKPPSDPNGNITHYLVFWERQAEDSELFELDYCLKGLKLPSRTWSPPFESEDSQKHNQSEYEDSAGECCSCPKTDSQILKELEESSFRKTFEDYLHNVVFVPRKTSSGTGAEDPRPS
Chain of Insulin receptor (Homo sapiens) (P06213 763-1382 limits assumed): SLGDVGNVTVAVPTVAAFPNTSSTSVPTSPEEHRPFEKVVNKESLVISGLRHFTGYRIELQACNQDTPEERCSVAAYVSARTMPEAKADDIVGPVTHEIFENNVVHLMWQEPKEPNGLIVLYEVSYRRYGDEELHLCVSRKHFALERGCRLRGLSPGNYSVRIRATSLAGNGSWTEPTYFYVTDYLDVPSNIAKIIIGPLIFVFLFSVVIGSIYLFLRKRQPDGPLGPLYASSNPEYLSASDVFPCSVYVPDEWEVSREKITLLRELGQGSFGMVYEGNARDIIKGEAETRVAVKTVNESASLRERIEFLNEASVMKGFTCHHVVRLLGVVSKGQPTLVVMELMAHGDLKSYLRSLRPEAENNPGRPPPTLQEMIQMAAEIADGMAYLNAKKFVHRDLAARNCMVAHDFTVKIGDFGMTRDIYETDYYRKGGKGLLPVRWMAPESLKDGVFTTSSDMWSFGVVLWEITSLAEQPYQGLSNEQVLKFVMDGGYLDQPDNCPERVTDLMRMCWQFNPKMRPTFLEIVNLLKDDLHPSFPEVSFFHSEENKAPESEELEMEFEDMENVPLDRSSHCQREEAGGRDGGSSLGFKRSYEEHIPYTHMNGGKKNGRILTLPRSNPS

fold change (FC) [1]: 0 | inhibition [2]: 0% | inhibition [3]: 0%
Compound: CNC(=O)c1ccccc1Oc1nc(Nc2cc(OC)c(OC)c(OC)c2)ncc1Br

fold change (FC) [4]: 0.35 | fold change (FC) [5]: 0 | fold change (FC) [6]: 0.11
Compound: CC(C)[C@H](NC(=O)c1cc(-c2cnn3cc(-c4ccc(OCCN5CCCCC5)cc4)cnc23)cs1)C(F)(F)F

fold change (FC) [7]: 0 | inhibition [8]: 8% | inhibition [9]: 0% | inhibition [10]: 23%
Compound: O=C(N[C@@H](C1CC1)C(F)(F)F)c1cc(-c2cnn3cc(-c4ccc(F)cc4)cnc23)cs1

Reference: ChEMBL document CHEMBL5653631, “A Potent and Selective ULK1 Inhibitor Suppresses Autophagy and Sensitizes Cancer Cells to Nutrient Stress” (iScience, 2018)
